How the values were obtained:
[1] = system: velvetleaf; test: Test B pre/postemergence velvetleaf; assay type: in vivo, Abutilon theophrasti
Procedure, shortened: (§1)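 Test chemicals in a non-phytotoxic solvent mixture with surfactant were sprayed preemergence onto planted seeds and postemergence onto plants 2 to 18 cm tall (1- to 4-leaf stage). After twelve to sixteen days in a greenhouse, injury was visually rated against untreated controls from 0 (no effect) to 10 (complete control).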

[2] = system: wheat; test: Test B pre/postemergence wheat; assay type: in vivo, Triticum aestivum
Procedure, shortened: as §1

[3] = system: bamyardgrass; test: Test B flood test barnyardgrass; assay type: in vivo, Echinochloa crus-galli
Procedure, shortened: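 Each value is a visual injury score relative to controls, with 10 meaning complete control and 0 no effect. Evaluation took place twelve to sixteen days after the 2-leaf-stage plants were treated and kept in the greenhouse.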

[4] = system: rape; test: Test B pre/postemergence rape; assay type: in vivo, Brassica napus
Procedure, shortened: as §1

[5] = Preemergence, Rate 62 g/ha, scale of 0 to 10 where 0 is no effect and 10 is complete control
[6] = Preemergence, Rate 250 g/ha, scale 0 to 10, 0 is no effect, 10 is complete control
[7] = Preemergence, Rate 500 g/ha, scale of 0 to 10 where 0 is no effect and 10 is complete control
[8] = Rate 62 g/ha, Postemergence, scale of 0 to 10 where 0 is no effect and 10 is complete control
[9] = Rate 125 g/ha, Postemergence, scale 0 to 10
[10] = Rate 62 g/ha, headed Pre-emergence (flood test species), scale 0 to 10 (0 no effect, 10 complete control)
[11] = Rate 125 g/ha, Pre-emergence, flood test species, scale 0 to 10 where 0 is no effect and 10 is complete control
[12] = Rate 250 g/ha, Pre-emergence, flood-test species, scale 0 to 10, 0 is no effect, 10 is complete control
[13] = Rate 500 g/ha, Pre-emergence, flood test species, scale 0 to 10 (0 no effect, 10 complete control)
[14] = Rate 500 g/ha, Postemergence, scale 0 to 10
[15] = Rate 125 g/ha, Preemergence, scale of 0 to 10 where 0 is no effect and 10 is complete control
[16] = Preemergence, Rate 250 g/ha, scale of 0 to 10 where 0 is no effect and 10 is complete control
[17] = Rate 500 g/ha, Postemergence, scale 0 to 10, 0 no effect, 10 complete control

Row | SMILES | Velvetleaf plant response rating [1, 5] | Plant response rating, Velvetleaf [1, 7] | Velvetleaf plant response rating [1, 8] | Velvetleaf plant response rating [1, 9] | Plant response rating (0 to 10; 0 is no effect, 10 is complete control), Velvetleaf ([1]; Rate 250 g/ha, Postemergence) | Wheat plant response rating [2, 5] | Plant response rating, Wheat [2, 7] | Wheat plant response rating [2, 8] | Wheat plant response rating [2, 9] | Plant response rating (0 to 10; 0 is no effect, 10 is complete control), Wheat ([2]; Rate 250 g/ha, Postemergence) | Barnyardgrass plant response rating [3, 10] | Barnyardgrass plant response rating [3, 11] | Barnyardgrass plant response rating [3, 12] | Barnyardgrass plant response rating [3, 13] | Rape plant response rating [4, 5] | Plant response rating, Rape [4, 7] | Rape plant response rating [4, 8] | Rape plant response rating [4, 9] | Plant response rating (0 to 10; 0 is no effect, 10 is complete control), Rape ([4]; Rate 250 g/ha, Postemergence) | Velvetleaf plant response rating [1, 15] | further results
1 | CC(C)N(C(=O)n1oc(=O)n(Cc2ccco2)c1=O)c1ccc(Cl)cc1 [Compound 206] | 0 | 0 | 0 | 0 | 0 | 0 | 0 | 0 | 0 | 0 | 0 | 0 | 0 | 0 | 0 | 0 | 0 | 0 | 0 |  | Velvetleaf plant response rating [1, 6]: 0; Wheat plant response rating [2, 6]: 0; Rape plant response rating (0 to 10 scale) ([4]; Preemergence, Rate 125 g/ha, 0 is no effect, 10 is complete control): 0; Rape plant response rating [4, 6]: 0; Rape plant response rating [4, 14]: 0
2 | CC(C)N(C(=O)n1oc(=O)n(CC=Cc2ccccc2)c1=O)c1ccc(F)cc1 [Compound 210] | 0 | 0 | 0 | 0 | 2 | 0 | 0 | 0 | 0 | 0 | 0 | 0 | 0 | 0 | 0 | 3 | 0 | 0 | 0 | 0 | Velvetleaf plant response rating [1, 6]: 0; Wheat plant response rating [2, 6]: 0; Wheat plant response rating [2, 15]: 0; Rape plant response rating [4, 6]: 0; Rape plant response rating [4, 15]: 0; Rape plant response rating [4, 14]: 0
3 | CCOC(=O)C=CCn1c(=O)on(C(=O)N(c2ccc(F)cc2)C(C)C)c1=O [Compound 214] | 0 | 0 | 0 | 0 | 0 | 0 | 0 | 0 | 0 | 3 | 0 | 0 | 0 | 0 | 0 | 0 | 0 | 0 | 3 | 0 | Velvetleaf plant response rating [1, 16]: 0; Wheat plant response rating [2, 16]: 0; Wheat plant response rating [2, 15]: 0; Rape plant response rating [4, 16]: 0; Rape plant response rating [4, 15]: 0; Rape plant response rating [4, 14]: 3
4 | COC(=O)Cn1c(=O)on(C(=O)N(c2ccc(F)cc2)C(C)C)c1=O [Compound 215] | 0 | 0 | 0 | 0 | 0 | 0 | 0 | 3 | 3 | 6 | 0 | 0 | 0 | 0 | 0 | 2 | 0 | 0 | 0 | 0 | Velvetleaf plant response rating [1, 16]: 0; Wheat plant response rating [2, 16]: 0; Wheat plant response rating [2, 15]: 0; Rape plant response rating [4, 16]: 0; Rape plant response rating [4, 15]: 0; Rape plant response rating [4, 14]: 0
5 | CC(C)N(C(=O)n1oc(=O)n(CC(=O)C(C)(C)C)c1=O)c1ccc(F)cc1 [Compound 216] | 0 | 0 | 0 | 0 | 0 | 0 | 0 | 0 | 0 | 0 | 0 | 0 | 0 | 0 | 0 | 0 | 0 | 0 | 0 | 0 | Velvetleaf plant response rating [1, 16]: 0; Wheat plant response rating [2, 16]: 0; Wheat plant response rating [2, 15]: 0; Rape plant response rating [4, 16]: 0; Rape plant response rating [4, 15]: 0; Rape plant response rating [4, 14]: 3
6 | CON=C(Cn1c(=O)on(C(=O)N(c2ccc(F)cc2)C(C)C)c1=O)C(F)(F)F [Compound 227] | 0 | 2 | 0 | 0 | 0 | 0 | 0 | 0 | 0 | 3 | 0 | 0 | 0 | 0 | 0 | 10 | 0 | 0 | 0 | 0 | Velvetleaf plant response rating [1, 16]: 0; Velvetleaf plant response rating [1, 17]: 3; Wheat plant response rating [2, 16]: 0; Wheat plant response rating [2, 15]: 0; Wheat plant response rating [2, 17]: 5; Rape plant response rating [4, 16]: 8; Rape plant response rating [4, 15]: 4; Rape plant response rating [4, 17]: 0
7 | CCCCc1ccc(N(C(=O)n2oc(=O)n(-c3ccccc3C)c2=O)C(C)C)cc1 [Compound 229] | 0 | 0 | 0 | 0 | 0 | 0 | 0 | 0 | 0 | 0 | 0 | 0 | 0 | 0 | 0 | 0 | 0 | 0 | 0 | 0 | Velvetleaf plant response rating [1, 16]: 0; Velvetleaf plant response rating [1, 17]: 2; Wheat plant response rating [2, 16]: 0; Wheat plant response rating [2, 15]: 0; Wheat plant response rating [2, 17]: 0; Rape plant response rating [4, 16]: 0; Rape plant response rating [4, 15]: 0; Rape plant response rating [4, 17]: 0

Source: patent US6737383B1, “Herbicidal oxadiazolidines” (priority 1999, dated 2004)
